One assay deals with TBK1. To be noted: TBK1, 5 cell line mix lysate, Kinobeads ε, ref Reinecke et al. (2023), cited from earlier work.
Another assay has as its system LOC102724428;SIK1. On the set-up: method as in Reinecke et al. (2023). To be noted: LOC102724428;SIK1, 5 cell line mix lysate, Kinobeads ε, ref Reinecke et al. (2023), cited from earlier work.
Another assay concerns SIK3. On the set-up: method as in Reinecke et al. (2023). The settings on record: SIK3, 5 cell line mix lysate, Kinobeads ε, ref Reinecke et al. (2023), cited from earlier work.
Another assay has as its system CLK2. Also on record: method as in Reinecke et al. (2023). The settings on record: CLK2, 5 cell line mix lysate, Kinobeads ε, ref Reinecke et al. (2023), cited from earlier work.
Another assay has as its system NUAK1. On the set-up: method as in Reinecke et al. (2023). To be noted: NUAK1, 5 cell line mix lysate, Kinobeads ε, ref Reinecke et al. (2023); cited from earlier work.
For another assay, the system named is PDO UME061. The assay is described as follows: PDO viability assay (CellTiter-Glo, 72 h). To be noted: Homo sapiens. It is filed as cell-based. On the procedure:
Primary patient-derived PDAC organoid (PDO) experiments were performed in the laboratories of Prof. Maximilian Reichert (University Hospital of the TU Munich, Germany, PDO set 1: B250, B535, B678) and Prof. Jens T. Siveke (University Hospital Essen, Germany; PDO set 2: UME008, UME012, UME051, UME053, UME060, UME061). PDOs were generated from surgical resection, EUS-guided fine needle biopsy (EUS-FNB), or ascites (Appendix Table S2). Surgical specimens were first minced with a sterile scalpel and subsequently washed with Anti-Anti solution and washing medium (PDO set 1), or vice versa (PDO set 2; Appendix Table S3). Biopsy samples were directly washed with an Anti-Anti solution and washing medium. Samples were digested using 1 ml of digestion medium at 37 °C while shaking, and the enzymatic reaction was stopped by adding 15 ml of washing medium (Appendix Table S3). […]
For viability assays in PDOs, confluent organoids were removed from medium, and Matrigel was dissolved by adding 200 μl (PDO set 1) or 2 ml (PDO set 2) of Cell Recovery Solution (Corning), and additionally 500 μl of DPBS (PDO set 1 only). […] After 72 h, cell viability was measured using the CellTiter-Glo Luminescent Cell Viability Assay (Promega) diluted 1:5 in the final volume of the well. […]
A general note: Cellular ATP, detected with luciferase, serves as a proxy for viable cell number.

Another assay concerns the target CSNK2A2 ; P19784 (Homo sapiens, UniProt P19784). Description: biochemical. On the set-up: species or system AsPC-1; Kinobeads competition pulldown in AsPC-1 lysate with LC-MS/MS label-free quantification; apparent Kd. On the procedure:
(§1) This was followed by incubation with Kinobeads ε (17.5 µl of settled beads) for 30 min at 4 °C to enrich kinases. […] Enriched proteins were reduced with 50 mM DTT in 8 M urea, 40 mM Tris-HCl, pH 7.4 for 30 min at room temperature, and alkylated with 55 mM chloroacetamide. After reducing the urea concentration to 1–2 M, proteins were digested with trypsin at 37 °C for 16 h. Subsequently, eluted peptides were desalted using SepPak tC18 µElution plates (Waters), freeze-dried by vacuum centrifugation, and stored at −20 °C. Proteins were filtered by potential contaminants, reversed hits and proteins identified only by site. Residual binding of proteins was calculated from LFQ intensities as the ratio between drug doses and vehicle. […] Only kinases quantified with at least 4 unique peptides in the vehicle experiment were considered. Potential targets were further curated through manual inspection of dose-dependent reduction in MS/MS and unique peptide counts.

In another assay the target is TP53RK ; Q96S44 (Homo sapiens, UniProt Q96S44). The assay is described as follows: biochemical. Also on record: species or system AsPC-1; Kinobeads competition pulldown in AsPC-1 lysate with LC-MS/MS label-free quantification; apparent Kd. On the procedure: as §1
TP53RK ; Q96S44, sequence (Q96S44 whole entry): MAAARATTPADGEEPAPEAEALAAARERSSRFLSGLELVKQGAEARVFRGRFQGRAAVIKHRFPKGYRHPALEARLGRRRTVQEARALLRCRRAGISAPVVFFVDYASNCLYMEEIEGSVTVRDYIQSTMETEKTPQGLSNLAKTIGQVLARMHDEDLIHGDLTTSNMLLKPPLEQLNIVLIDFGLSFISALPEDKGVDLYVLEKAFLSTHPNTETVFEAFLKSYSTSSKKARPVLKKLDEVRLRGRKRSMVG
Assay [1] addresses CIT ; O14578-4;O14578;O14578-2 (Homo sapiens, UniProt O14578). Description: biochemical. Also on record: species or system AsPC-1; Kinobeads competition pulldown in AsPC-1 lysate with LC-MS/MS label-free quantification; apparent Kd. As to the method:
as §1

Assay [2] addresses PIP4K2C ; Q8TBX8;Q8TBX8-2;Q8TBX8-3 (Homo sapiens, UniProt Q8TBX8). Description: biochemical. On the set-up: species or system AsPC-1; Kinobeads competition pulldown in AsPC-1 lysate with LC-MS/MS label-free quantification; apparent Kd. As to the method: as §1

Broadly, the EC50 is the concentration at which the effect is half-maximal.

Molecules are shown by their SMILES.

CSNK2A2 ; P19784, sequence (P19784 whole entry): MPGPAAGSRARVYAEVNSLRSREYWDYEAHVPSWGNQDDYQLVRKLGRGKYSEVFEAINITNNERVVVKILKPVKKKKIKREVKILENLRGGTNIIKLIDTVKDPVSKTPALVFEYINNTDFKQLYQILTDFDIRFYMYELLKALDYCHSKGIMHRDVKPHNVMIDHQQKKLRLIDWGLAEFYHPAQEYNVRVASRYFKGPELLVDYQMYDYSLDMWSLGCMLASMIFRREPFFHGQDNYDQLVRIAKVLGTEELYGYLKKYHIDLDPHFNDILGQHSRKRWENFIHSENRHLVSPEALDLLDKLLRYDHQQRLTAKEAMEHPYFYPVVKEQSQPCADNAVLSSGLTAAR
PIP4K2C ; Q8TBX8;Q8TBX8-2;Q8TBX8-3, sequence (Q8TBX8 whole entry): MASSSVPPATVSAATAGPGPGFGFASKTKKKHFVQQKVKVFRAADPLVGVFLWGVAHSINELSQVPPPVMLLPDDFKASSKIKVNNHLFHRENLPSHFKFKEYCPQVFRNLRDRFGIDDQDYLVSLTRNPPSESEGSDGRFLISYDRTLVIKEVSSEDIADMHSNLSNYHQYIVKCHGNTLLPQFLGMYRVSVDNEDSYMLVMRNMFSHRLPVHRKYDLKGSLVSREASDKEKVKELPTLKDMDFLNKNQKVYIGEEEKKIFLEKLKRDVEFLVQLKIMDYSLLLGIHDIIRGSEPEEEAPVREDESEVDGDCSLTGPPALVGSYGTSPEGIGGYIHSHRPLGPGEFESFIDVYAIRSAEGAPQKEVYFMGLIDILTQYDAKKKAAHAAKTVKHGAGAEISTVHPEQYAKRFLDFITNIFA
CIT ; O14578-4;O14578;O14578-2, sequence (O14578 whole entry): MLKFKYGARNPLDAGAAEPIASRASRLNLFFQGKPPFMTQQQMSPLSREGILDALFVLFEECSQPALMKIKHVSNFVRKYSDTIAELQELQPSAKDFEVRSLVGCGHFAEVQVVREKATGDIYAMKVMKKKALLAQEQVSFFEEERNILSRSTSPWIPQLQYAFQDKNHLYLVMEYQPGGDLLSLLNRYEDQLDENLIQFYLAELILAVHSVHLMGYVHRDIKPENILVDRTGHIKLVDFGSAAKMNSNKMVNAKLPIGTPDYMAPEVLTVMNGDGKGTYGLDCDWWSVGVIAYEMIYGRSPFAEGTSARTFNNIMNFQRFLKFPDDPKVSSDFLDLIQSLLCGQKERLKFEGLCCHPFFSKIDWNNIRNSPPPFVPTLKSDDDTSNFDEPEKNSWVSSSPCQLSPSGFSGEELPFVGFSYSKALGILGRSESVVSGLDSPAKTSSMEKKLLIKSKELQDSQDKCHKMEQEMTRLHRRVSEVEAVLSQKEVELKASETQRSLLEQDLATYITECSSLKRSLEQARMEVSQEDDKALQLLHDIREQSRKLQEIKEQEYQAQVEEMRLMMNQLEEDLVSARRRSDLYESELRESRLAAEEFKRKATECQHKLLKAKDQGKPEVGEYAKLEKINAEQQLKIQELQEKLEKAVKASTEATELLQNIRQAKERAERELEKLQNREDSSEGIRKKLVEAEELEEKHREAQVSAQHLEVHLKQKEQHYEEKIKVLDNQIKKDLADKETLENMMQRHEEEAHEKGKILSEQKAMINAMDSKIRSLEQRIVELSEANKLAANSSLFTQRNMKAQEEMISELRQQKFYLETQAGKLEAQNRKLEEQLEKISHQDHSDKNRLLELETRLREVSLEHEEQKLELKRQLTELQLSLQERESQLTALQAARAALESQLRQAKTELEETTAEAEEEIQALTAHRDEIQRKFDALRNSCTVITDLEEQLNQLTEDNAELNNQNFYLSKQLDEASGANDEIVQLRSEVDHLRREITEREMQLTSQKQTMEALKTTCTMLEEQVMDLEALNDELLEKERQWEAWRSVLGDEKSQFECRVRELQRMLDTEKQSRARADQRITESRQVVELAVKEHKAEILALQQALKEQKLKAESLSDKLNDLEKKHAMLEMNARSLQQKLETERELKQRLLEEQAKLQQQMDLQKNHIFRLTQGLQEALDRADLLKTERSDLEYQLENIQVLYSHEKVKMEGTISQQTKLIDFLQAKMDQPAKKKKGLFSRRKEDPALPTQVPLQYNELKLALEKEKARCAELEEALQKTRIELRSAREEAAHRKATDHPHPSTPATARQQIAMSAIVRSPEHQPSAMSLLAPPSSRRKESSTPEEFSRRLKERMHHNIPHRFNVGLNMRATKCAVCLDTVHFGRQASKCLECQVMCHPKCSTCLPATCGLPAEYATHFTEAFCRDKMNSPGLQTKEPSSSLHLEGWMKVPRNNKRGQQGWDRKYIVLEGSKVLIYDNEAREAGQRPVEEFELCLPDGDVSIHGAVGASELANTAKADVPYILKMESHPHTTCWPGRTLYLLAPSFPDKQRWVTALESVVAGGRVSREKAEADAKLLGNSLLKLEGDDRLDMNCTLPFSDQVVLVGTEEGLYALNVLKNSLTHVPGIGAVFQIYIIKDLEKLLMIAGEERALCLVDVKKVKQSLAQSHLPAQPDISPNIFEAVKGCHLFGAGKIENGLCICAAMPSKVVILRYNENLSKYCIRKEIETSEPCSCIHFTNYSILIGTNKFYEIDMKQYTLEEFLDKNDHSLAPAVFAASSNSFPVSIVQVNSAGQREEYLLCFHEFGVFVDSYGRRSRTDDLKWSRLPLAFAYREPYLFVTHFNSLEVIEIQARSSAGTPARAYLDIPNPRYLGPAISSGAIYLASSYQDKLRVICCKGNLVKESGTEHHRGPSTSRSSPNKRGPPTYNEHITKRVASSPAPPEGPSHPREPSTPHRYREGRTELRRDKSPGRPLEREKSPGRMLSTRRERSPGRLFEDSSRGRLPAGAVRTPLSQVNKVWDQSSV

`COc1cc(N2CCC(N3CCN(C)CC3)CC2)ccc1Nc1ncc(Cl)c(Nc2ccccc2P(C)(C)=O)n1` [Brigatinib]: the EC50 with TBK1 was 1.02 µM; with LOC102724428;SIK1, 0.106 µM; in the assay with SIK3 it was 1.77 µM; in the assay with CLK2 it was 0.686 µM; in the assay on NUAK1 it was 0.532 µM. The pKDapp on TBK1 is reported as 6.18; at LOC102724428;SIK1 it was 6.98; at SIK3 it was 5.84; at CLK2, 6.35. In addition, the Kd is 0.655 µM at TBK1 (read-out: KDapp), 0.106 µM at LOC102724428;SIK1 (read-out: KDapp), 1.45 µM at SIK3 (read-out: KDapp) and 0.444 µM on CLK2 (read-out: KDapp).

Turning to `Nc1ccn([C@@H]2O[C@H](CO)[C@@H](O)C2(F)F)c(=O)n1` [GEM, Gemcitabine], the 50% effective concentration (EC50) worked out at 0.0058 µM in the assay with PDO UME061 (GEM alone) and 0.00578 µM in the assay with PDO UME061 (experiment GEM (GEM alone), mean of replicates).

`Nc1nn2cc(F)cnc2c1C(=O)Nc1cncc(F)c1N1CCC(C(=O)N2CCN(C3COC3)CC2)CC1` [Gartisertib]: the Kd on CSNK2A2 ; P19784 was determined as 0.0151 µM; on TP53RK ; Q96S44 it was 0.113 µM; in assay [1] it was 0.04 µM.

In the case of `CNCc1ccc(-c2cc(-c3nc(-c4ccc(S(=O)(=O)C(C)C)cc4)cnc3N)on2)cc1` [Berzosertib], the Kd in [2] came out at 0.0214 µM.

The values are drawn from publication PMC11876601 (Molecular Systems Biology, 2025).
